Where “and” joins values, the source holds several entries; their conditions need not be identical. Equal values may be shown once.
Assays:
Type in all cases: in vivo
Conditions in all cases: no safener
Barley = assay: Compatibility with crop plants, greenhouse, post-emergence, visual scoring
Experimental: (§1) Seeds or rhizome pieces of monocotyledonous and dicotyledonous weeds were placed in sandy loam soil in plastic pots, covered with soil and cultivated in a greenhouse under good growth conditions. Three weeks after sowing, the test plants were treated at the 2- to 4-leaf stage. The compounds according to the invention, formulated as wettable powders or as emulsion concentrates, were sprayed onto the green parts of the plants in various dosages at a water application rate of 100 to 800 I/ha (converted). After the test plants had been left to stand in the greenhouse for 3 to 4 weeks under optimum growth conditions, the effect of the preparations was scored visually in comparison to untreated controls.
(§2) In further greenhouse trials, seeds of a relatively large number of crop plants and weeds were placed into sandy loam soil and covered with soil. Some of the pots were immediately treated as described in section 1, the others were placed in a greenhouse until the plants had developed two to three true leaves and were then sprayed with various dosages of the herbicide/safener combinations according to the invention, as described in section 2. Four to five weeks after the application and standing time in the greenhouse, it was established by visual scoring that the herbicide/safener combinations tested, i.e. of 2-iodo-N-[(4-methoxy-6-methyl-1,3,5-triazin-2-yl)carbamoyl]benzenesulfonamide and the compounds of the formula (I) listed in table A, did, especially with the safeners of the compounds of the formulae S1-1, S1-6, S1-9, S2-1 and S3-1, benoxacor, furilazole, fluxofenim, not cause any damage to crop plants such as cotton, oilseed rape, sugar cane, sugar beet and also Gramineae crops such as barley, wheat, rye, millet, corn or rice when applied by the pre-emergence method or the post-emergence method.
(§3) The results of selected trials with respect to the crop plant compatibility are shown below in an exemplary manner using as an example safeners improving 2-iodo-N-[(4-methoxy-6-methyl-1,3,5-triazin-2-yl)carbamoyl]benzenesulfonamide (A-0) or its Na^+ salt (A-2) in various crop plants, i.e. wheat, barley and corn.

Corn [1] = assay: as above
Experimental: as §1, §2, §3

Wheat = assay: as above
Experimental: as §1, §2, §3

Corn [2] = assay: Compatibility with crop plants, greenhouse, pre-emergence, visual scoring
From the text: Seeds or rhizome pieces of monocotyledonous and dicotyledonous weed plants were placed in sandy loam soil in cardboard pots and covered with soil. The active compounds (A) and (B), formulated as wettable powders or emulsion concentrates, were then applied to the surface of the covering soil as aqueous suspensions or emulsions in different dosages at a water application rate of 100 to 800 I/ha (converted).
After the treatment, the pots were placed in a greenhouse and kept under good growth conditions for the weeds. Visual scoring of the plant damage or emergence damage was carried out after the test plants had emerged after a test period of 3 to 4 weeks, in comparison to untreated controls. […] The combinations of 2-iodo-N—[(4-methoxy-6-methyl-1,3,5-triazin-2-yl)carbamoyl]benzenesulfonamide and compounds of the formula (I) mentioned in table A especially with the safeners of the compounds of the formulae S1-1, S1-9, S2-1 and S3-1 have very good synergistic herbicidal activity against harmful plants such as Sinapis alba, Chrysanthemum segetum, Avena sativa, Stellaria media, Echinochloa crus-galli, Lolium multiflorum, Setaria viridis, Abutilon theophrasti, Amaranthus retroflexus and Panicum miliaceum when applied by the pre-emergence method at an application rate of 100 g or less of active substance per hectare. […]

[3] = active compound 6.25 g of ai/ha
[4] = active compound 12.5 g of ai/ha

What does the source list for `COc1nc(C)nc(NC(=O)NS(=O)(=O)c2ccccc2I)n1` [Compound A-0, 2-iodo-N-[(4-methoxy-6-methyl-1,3,5-triazin-2-yl)carbamoyl]benzenesulfonamide]?
Damage to the crop plant in % (Barley; [3]): 20% and 10%; Damage to the crop plant in % (Barley; [4]): 20%; Damage to the crop plant in % (Corn [1]; [3]): 20%; Damage to the crop plant in % (Corn [1]; active compound 25 g of ai/ha): 50%; Damage to the crop plant in % (Wheat; [3]): 20%; Damage to the crop plant in % (Wheat; [4]): 20%; Damage to the crop plant in % (Corn [2]; [4]): 65%; Damage to the crop plant in % (Corn [2]; active compound 50 g of ai/ha): 60%

Source: patent US20100317517A1, “HERBICIDE-SAFENER COMBINATION” (BAYER CROPSCIENCE AG, priority 2007, published 2010)
